From patent US20060009357A1, “Azo dye, ink jet recording ink, heat sensitive recording material, color toner, color filter, ink jet recording method, ink cartridge and ink jet printer” (FUJI PHOTO FILM CO., LTD., priority 2004, published 2006)

Tests used:
[1] = Light fastness of recorded image (xenon light, weatherometer); type: physicochemical; parameters: key: An image having a dye retention of 80% or higher at every measuring point was graded A; An image having a dye retention lower than 80% at one or two out of three points was graded B; An image having a dye retention lower than 80% at every point was graded C; conditions: dye retention after xenon light 85,000 lux for 7 days; initial densities 1, 1.5, 2.0; Super Photo Grade paper
Protocol: An image was recorded on photo glossy paper (Super Photo Grade, available from Fuji Photo Film Co., Ltd.) on ink jet printer (PM-770C, available from Seiko Epson Corp.) by using each of ink liquids A to I. The resulting image was evaluated for hue, light fastness, and ozone resistance as follows.
As to light fastness, the image density immediately after recording (initial density: Ci) was measured with a reflection densitometer X-Rite 310TR. After the image was exposed to xenon light (85,000 lux) for 7 days in a weatherometer (Atlas C.65, from Atlas Electric Devices Co.), the image density (Cf) was measured again at three points whose initial densities were 1, 1.5, and 2.0. A dye retention (%) was calculated from equation: Dye retention (%)=[…]
An image having a dye retention of 80% or higher at every measuring point was graded A. An image having a dye retention lower than 80% at one or two out of three points was graded B. An image having a dye retention lower than 80% at every point was graded C.

[2] = Ozone resistance of recorded image (ozone gas chamber); type: physicochemical; conditions: dye retention after ozone gas 5 ppm for 24 hours; three density points; Super Photo Grade paper
Protocol: An image was recorded on photo glossy paper (Super Photo Grade, available from Fuji Photo Film Co., Ltd.) on ink jet printer (PM-770C, available from Seiko Epson Corp.) by using each of ink liquids A to I. The resulting image was evaluated for hue, light fastness, and ozone resistance as follows. As to ozone resistance, the recorded image was left to stand in a chamber having an ozone gas concentration of 5 ppm for 24 hours. A dye retention after exposure to ozone was obtained in the same manner as for evaluation of light fastness. The ozone concentration in the chamber was set with an ozone gas monitor (OZG-EM-01, available from […] Co., Ltd.). An image having a dye retention of 70% or higher at every measuring point was graded A. An image having a dye retention lower than 70% at one or two out of three points was graded B. An image having a dye retention lower than 70% at every point was graded C.

Row | SMILES | Light Fastness [1] | Ozone fastness [2]
1 | O=C(O)c1ccccc1/N=N/c1c(S(=O)(=O)O)cc2cc(S(=O)(=O)[O-])cc(Nc3nc(O)nc(Nc4ccccc4C(=O)O)n3)c2c1O.[Na+] [h-3] | C (An image having a dye retention lower than 80% at every point was graded C) | C (An image having a dye retention lower than 70% at every point was graded C)
2 | Cn1c(=O)cc2c3c(c(Nc4ccc(Nc5nc(O)nc(Nc6cc(S(=O)(=O)[O-])ccc6S(=O)(=O)O)n5)cc4S(=O)(=O)O)ccc31)C(=O)c1ccccc1-2.[Na+] [h-2] | B | C (An image having a dye retention lower than 70% at every point was graded C)
